# Assay results published in US8435980B2 (AbbVie Inc., priority 2009, dated 2013).
# Molecular target: T1, Cdc7 (BEV coexpressed huCDC7/DBF4) (Homo sapiens, UniProt O00311)
# T1 construct: made in house; host or cells: BEV (baculovirus expression vector) co-expression; insect cells are implied but no cell line is named
# Test: Cdc7 enzyme inhibition assay ([33P]ATP, biotinylated peptide substrate, FlashPlate)
# Assay type: biochemical
# Details: not given
# Method: Cdc7 (BEV coexpressed huCDC7/DBF4) is prepared internally. Cdc7 assays are conducted as follows with final concentrations as listed. […] Reactions are quenched after 1 hr by the addition of 90 μL stop buffer (50 mM EDTA, 2M NaCl). […] (Ki) for exemplary compounds.
# T1 sequence (O00311 whole entry): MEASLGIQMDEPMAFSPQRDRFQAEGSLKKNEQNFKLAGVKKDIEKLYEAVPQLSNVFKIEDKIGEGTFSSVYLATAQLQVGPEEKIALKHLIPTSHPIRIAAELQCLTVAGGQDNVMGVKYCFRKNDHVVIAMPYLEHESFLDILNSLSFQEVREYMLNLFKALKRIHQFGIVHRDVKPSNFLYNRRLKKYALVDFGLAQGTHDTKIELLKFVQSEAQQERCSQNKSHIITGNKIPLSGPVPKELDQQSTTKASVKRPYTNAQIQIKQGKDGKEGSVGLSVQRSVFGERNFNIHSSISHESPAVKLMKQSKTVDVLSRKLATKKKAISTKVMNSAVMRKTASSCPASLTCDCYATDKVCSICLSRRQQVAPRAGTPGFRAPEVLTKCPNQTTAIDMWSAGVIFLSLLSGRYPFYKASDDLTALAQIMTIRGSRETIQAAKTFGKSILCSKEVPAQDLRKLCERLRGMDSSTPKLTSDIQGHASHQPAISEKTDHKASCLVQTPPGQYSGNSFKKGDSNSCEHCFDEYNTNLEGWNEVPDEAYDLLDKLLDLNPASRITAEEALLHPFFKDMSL
# T1 sequence (Q9UBU7 whole entry partner): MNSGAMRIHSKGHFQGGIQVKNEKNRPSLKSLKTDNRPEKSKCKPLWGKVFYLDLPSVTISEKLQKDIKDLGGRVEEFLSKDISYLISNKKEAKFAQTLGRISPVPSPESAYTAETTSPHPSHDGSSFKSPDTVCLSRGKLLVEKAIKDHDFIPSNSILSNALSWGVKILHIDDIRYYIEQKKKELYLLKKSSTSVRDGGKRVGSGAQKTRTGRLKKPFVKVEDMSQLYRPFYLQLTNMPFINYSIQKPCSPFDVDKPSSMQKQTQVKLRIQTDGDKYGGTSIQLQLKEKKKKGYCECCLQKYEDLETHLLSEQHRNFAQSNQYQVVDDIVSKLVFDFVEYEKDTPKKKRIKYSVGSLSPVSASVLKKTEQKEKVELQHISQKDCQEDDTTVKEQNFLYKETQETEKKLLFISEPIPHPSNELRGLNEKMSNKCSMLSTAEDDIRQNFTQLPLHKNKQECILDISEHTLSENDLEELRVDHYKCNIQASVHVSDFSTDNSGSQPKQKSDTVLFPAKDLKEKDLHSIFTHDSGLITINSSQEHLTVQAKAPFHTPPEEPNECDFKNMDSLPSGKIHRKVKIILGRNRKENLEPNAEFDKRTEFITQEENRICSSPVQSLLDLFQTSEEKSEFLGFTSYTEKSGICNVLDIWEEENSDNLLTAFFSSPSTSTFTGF
row,Structure (SMILES),Ki
1,"COC1CCC(Nc2cc(-c3c[nH]c4ncccc34)cc(Cl)n2)CC1 (centres unmarked) [Example 34, 6-chloro-N-(4-methoxycyclohexyl)-4-(1H-pyrrolo[2,3-b]pyridin-3-yl)pyridin-2-amine]",10 to 100 nM

# Same assay, conditions: Table 2; Comparative Example lacking the chloro substituent versus the chloro Example
row,Structure (SMILES),Ki ratio comparisons (Ki Comparative Example/Ki Example)
1,"N#Cc1cc(-c2c[nH]c3ncccc23)cc(N[C@H]2CC[C@H](O)CC2)n1 [Comparative Example 10, 6-[(trans-4-hydroxycyclohexyl)amino]-4-(1H-pyrrolo[2,3-b]pyridin-3-yl)pyridine-2-carbonitrile, reference compound]",10

# Same assay, conditions: Table 3; enzyme inhibition data (Ki)
row,Structure (SMILES),Ki
1,"Cn1ccc(CN2CC(C(=O)N[C@H]3CC[C@H](Nc4cc(-c5c[nH]c6ncccc56)cc(Cl)n4)CC3)C2)n1 [Example 211, N-(trans-4-{[6-chloro-4-(1H-pyrrolo[2,3-b]pyridin-3-yl)pyridin-2-yl]amino}cyclohexyl)-1-[(1-methyl-1H-pyrazol-3-yl)methyl]azetidine-3-carboxamide]",< 10 nM
2,"CS(=O)(=O)Nc1cc(-c2c[nH]c3ncccc23)cc(Cl)n1 [Example 122, N-[6-chloro-4-(1H-pyrrolo[2,3-b]pyridin-3-yl)pyridin-2-yl]methanesulfonamide]",< 10 nM
3,"CN1CCC[C@H]1C(=O)N[C@H]1CC[C@H](Nc2cc(-c3c[nH]c4ncccc34)cc(Cl)n2)CC1 (relative stereo) [Example 336, N-(trans-4-{[6-chloro-4-(1H-pyrrolo[2,3-b]pyridin-3-yl)pyridin-2-yl]amino}cyclohexyl)-1-methylprolinamide]",< 10 nM
4,"O=C(N[C@H]1CC[C@H](Nc2nc(Cl)cc(-c3c[nH]c4ncccc34)n2)CC1)C1CC1 [Example 271, N-(trans-4-{[4-chloro-6-(1H-pyrrolo[2,3-b]pyridin-3-yl)pyrimidin-2-yl]amino}cyclohexyl)cyclopropanecarboxamide]",< 10 nM
5,"O=C(N[C@H]1CC[C@H](Nc2cc(-c3c[nH]c4ncccc34)cc(Cl)n2)CC1)C1CN(Cc2ccc(F)cc2F)C1 [Example 210, N-(trans-4-{[6-chloro-4-(1H-pyrrolo[2,3-b]pyridin-3-yl)pyridin-2-yl]amino}cyclohexyl)-1-(2,4-difluorobenzyl)azetidine-3-carboxamide]",< 10 nM
6,"O=C(N[C@H]1CC[C@H](Nc2cc(-c3c[nH]c4ncccc34)cc(Cl)n2)CC1)C1CN(Cc2ccccn2)C1 [Example 429, N-(trans-4-{[6-chloro-4-(1H-pyrrolo[2,3-b]pyridin-3-yl)pyridin-2-yl]amino}cyclohexyl)-1-(pyridin-2-ylmethyl)azetidine-3-carboxamide]",< 10 nM
7,"O=S(=O)(NC1CCCC(Nc2cc(-c3c[nH]c4ncccc34)cc(Cl)n2)C1)C1CC1 (centres unmarked) [Example 76, N-(3-{[6-chloro-4-(1H-pyrrolo[2,3-b]pyridin-3-yl)pyridin-2-yl]amino}cyclohexyl)cyclopropanesulfonamide]",< 10 nM
8,"CC(c1ccccc1)N1CC(C(=O)N[C@H]2CC[C@H](Nc3cc(-c4c[nH]c5ncccc45)cc(Cl)n3)CC2)C1 (relative stereo) [Example 396, N-(trans-4-{[6-chloro-4-(1H-pyrrolo[2,3-b]pyridin-3-yl)pyridin-2-yl]amino}cyclohexyl)-1-(1-phenylethyl)azetidine-3-carboxamide]",< 10 nM
9,"Clc1cc(-c2c[nH]c3ncccc23)cc(NC2CCC(C3CCCNC3)CC2)n1 (centres unmarked) [Example 181, 6-chloro-N-[4-(piperidin-3-yl)cyclohexyl]-4-(1H-pyrrolo[2,3-b]pyridin-3-yl)pyridin-2-amine]",< 10 nM
10,"CN[C@@H](C)C(=O)NC1CCCC(Nc2cc(-c3c[nH]c4ncccc34)cc(Cl)n2)C1 (some centres unmarked) [Example 327, N-(3-{[6-chloro-4-(1H-pyrrolo[2,3-b]pyridin-3-yl)pyridin-2-yl]amino}cyclohexyl)-N~2~-methylalaninamide]",< 10 nM
11,"CS(=O)(=O)Nc1cnc2[nH]cc(-c3cc(Cl)nc(NC4CCCCC4)c3)c2c1 [Example 256, N-{3-[2-chloro-6-(cyclohexylamino)pyridin-4-yl]-1H-pyrrolo[2,3-b]pyridin-5-yl}methanesulfonamide]",< 10 nM
12,"Clc1cc(-c2c[nH]c3nccc(Cl)c23)cc(NC2CCCCC2)n1 [Example 168, 6-chloro-4-(4-chloro-1H-pyrrolo[2,3-b]pyridin-3-yl)-N-cyclohexylpyridin-2-amine]",< 10 nM
13,"CN(C)[C@@H]1CCCC[C@@H]1Nc1cc(-c2c[nH]c3ncccc23)cc(Cl)n1 (relative stereo) [Example 140, (cis)-N′-[6-chloro-4-(1H-pyrrolo[2,3-b]pyridin-3-yl)pyridin-2-yl]-N,N-dimethylcyclohexane-1,2-diamine]",< 10 nM
14,"COc1cnc2[nH]cc(-c3cc(Cl)nc(NC4CCC(CC5CCC(NC(=O)c6cccnc6)CC5)CC4)c3)c2c1 (centres unmarked) [Example 257, N-{4-[(4-{[6-chloro-4-(5-methoxy-1H-pyrrolo[2,3-b]pyridin-3-yl)pyridin-2-yl]amino}cyclohexyl)methyl]cyclohexyl}pyridine-3-carboxamide]",< 10 nM
15,"Clc1cc(-c2c[nH]c3ncc(OCCN4CCOCC4)cc23)cc(NC2CCCCC2)n1 [Example 195, 6-chloro-N-cyclohexyl-4-{5-[2-(morpholin-4-yl)ethoxy]-1H-pyrrolo[2,3-b]pyridin-3-yl}pyridin-2-amine]",< 10 nM
16,"COc1cnc2[nH]cc(-c3cc(Cl)nc(NC4CCCC(NS(=O)(=O)C5CC5)C4)c3)c2c1 (centres unmarked) [Example 260, N-(3-{[6-chloro-4-(5-methoxy-1H-pyrrolo[2,3-b]pyridin-3-yl)pyridin-2-yl]amino}cyclohexyl)cyclopropanesulfonamide]",< 10 nM
17,"COCCNc1nc(Cl)cc(-c2c[nH]c3ncccc23)n1 [Example 279, 4-chloro-N-(2-methoxyethyl)-6-(1H-pyrrolo[2,3-b]pyridin-3-yl)pyrimidin-2-amine]",< 10 nM
18,"CN1CCC(C(=O)N[C@H]2CC[C@H](Nc3cc(-c4c[nH]c5ncccc45)cc(Cl)n3)CC2)C1 (relative stereo) [Example 125, N-(trans-4-{[6-chloro-4-(1H-pyrrolo[2,3-b]pyridin-3-yl)pyridin-2-yl]amino}cyclohexyl)-1-methylpyrrolidine-3-carboxamide]",< 10 nM
19,"O=C(N[C@H]1CC[C@H](Nc2cc(-c3c[nH]c4ncccc34)cc(Cl)n2)CC1)c1cccc(C(F)(F)F)c1 [Example 383, N-(trans-4-{[6-chloro-4-(1H-pyrrolo[2,3-b]pyridin-3-yl)pyridin-2-yl]amino}cyclohexyl)-3-(trifluoromethyl)benzamide]",< 10 nM
20,"O=S(=O)(NCCNc1cc(-c2c[nH]c3ncccc23)cc(Cl)n1)c1cccs1 [Example 314, N-(2-{[6-chloro-4-(1H-pyrrolo[2,3-b]pyridin-3-yl)pyridin-2-yl]amino}ethyl)thiophene-2-sulfonamide]",< 10 nM
21,"O=C(Nc1cc(-c2c[nH]c3ncccc23)cc(Cl)n1)C1CCCCC1 [Example 85, N-[6-chloro-4-(1H-pyrrolo[2,3-b]pyridin-3-yl)pyridin-2-yl]cyclohexanecarboxamide]",< 10 nM
22,"CC(=O)Nc1cccc(-c2cnc3[nH]cc(-c4cc(Cl)nc(NC5CCCCC5)c4)c3c2)c1 [Example 255, N-(3-{3-[2-chloro-6-(cyclohexylamino)pyridin-4-yl]-1H-pyrrolo[2,3-b]pyridin-5-yl}phenyl)acetamide]",< 10 nM
23,"O=C(NC1CCC(N[C@H]2CC[C@H](Nc3cc(-c4c[nH]c5ncccc45)cc(Cl)n3)CC2)CC1)C1CC1 (stereo partly drawn) [Example 162, N-{4-[(trans-4-{[6-chloro-4-(1H-pyrrolo[2,3-b]pyridin-3-yl)pyridin-2-yl]amino}cyclohexyl)amino]cyclohexyl}cyclopropanecarboxamide]",< 10 nM
24,"COc1cnc2[nH]cc(-c3cc(Cl)nc(N[C@H]4CC[C@H](NC(=O)CN[C@H]5CC[C@H](O)CC5)CC4)c3)c2c1 [Example 445, N-(trans-4-{[6-chloro-4-(5-methoxy-1H-pyrrolo[2,3-b]pyridin-3-yl)pyridin-2-yl]amino}cyclohexyl)-N~2~-(trans-4-hydroxycyclohexyl)glycinamide]",< 10 nM
25,"CS(=O)(=O)N1CCCC(CNc2cc(-c3c[nH]c4ncccc34)cc(Cl)n2)C1 (centres unmarked) [Example 97, 6-chloro-N-((1-(methylsulfonyl)piperidin-3-yl)methyl)-4-(1H-pyrrolo[2,3-b]pyridin-3-yl)pyridin-2-amine]",< 10 nM
26,"Clc1cc(-c2c[nH]c3ncccc23)cc(NC2CCN(Cc3ccccc3)C2)n1 (centres unmarked) [Example 392, N-(1-benzylpyrrolidin-3-yl)-6-chloro-4-(1H-pyrrolo[2,3-b]pyridin-3-yl)pyridin-2-amine]",< 10 nM
27,"CC(C)NC(=O)NC1CCC(Nc2cc(-c3c[nH]c4ncccc34)cc(Cl)n2)CC1 (centres unmarked) [Example 287, 1-(4-{[6-chloro-4-(1H-pyrrolo[2,3-b]pyridin-3-yl)pyridin-2-yl]amino}cyclohexyl)-3-propan-2-ylurea]",< 10 nM
28,"CC(C)(C)OC(=O)N1CC(C(=O)N[C@H]2CC[C@H](Nc3cc(-c4c[nH]c5ncccc45)cc(Cl)n3)CC2)C1 [Example 364, tert-butyl 3-[(trans-4-{[6-chloro-4-(1H-pyrrolo[2,3-b]pyridin-3-yl)pyridin-2-yl]amino}cyclohexyl)carbamoyl]azetidine-1-carboxylate]",< 10 nM
29,"CCOCC(=O)NC1CCCC(Nc2cc(-c3c[nH]c4ncccc34)cc(Cl)n2)C1 (centres unmarked) [Example 292, N-(3-{[6-chloro-4-(1H-pyrrolo[2,3-b]pyridin-3-yl)pyridin-2-yl]amino}cyclohexyl)-2-ethoxyacetamide]",< 10 nM
30,"CN[C@@H](C(=O)N[C@H]1CCC[C@H](Nc2cc(-c3c[nH]c4ncccc34)cc(Cl)n2)C1)c1ccccc1 [Example 328, (2R)—N-[(1S,3S)-3-{[6-chloro-4-(1H-pyrrolo[2,3-b]pyridin-3-yl)pyridin-2-yl]amino}cyclohexyl]-2-(methylamino)-2-phenylethanamide]",< 10 nM
